Values joined by “and” are separate entries in the source; they are usually repeats but may differ in a detail not shown here. Equal entries are not always repeated.
Assay: xn = mol fraction of the nth substance listed

CCCCOCCO + O=C1CCCCC1
298.15 K, 101 kPa
Settings | viscosity
x2 = 0.118 | 2.522 mPa·s and 2.642 mPa·s
x2 = 0.2314 | 2.28 mPa·s and 2.518 mPa·s
x2 = 0.3404 | 2.108 mPa·s and 2.402 mPa·s
x2 = 0.4453 | 1.972 mPa·s and 2.304 mPa·s
x2 = 0.5463 | 1.873 mPa·s and 2.217 mPa·s
x2 = 0.6436 | 1.795 mPa·s and 2.146 mPa·s
x2 = 0.7375 | 1.763 mPa·s and 2.087 mPa·s
x2 = 0.8281 | 1.766 mPa·s and 2.048 mPa·s
x2 = 0.9155 | 1.822 mPa·s and 2.024 mPa·s

CCCCOCCO + CCCCCCCCO
viscosity [mPa·s], 101 kPa
Settings | 298.15 K | 303.15 K | 308.15 K
x1 = 0.6004 | 3.885 | – | 2.965
x1 = 0.8027 | – | 2.825 | 2.545

CCCCCCBr + C=C(C)C(=O)OC
303.15 K, 101 kPa
Settings | viscosity [mPa·s]
x2 = 0.1439 | 0.8087
x2 = 0.2632 | 0.7611
x2 = 0.4885 | 0.6895
x2 = 0.5904 | 0.6665
x2 = 0.6826 | 0.6354
x2 = 0.8513 | 0.5709
x2 = 0.9171 | 0.5459

CCCCNCCO + O
100 kPa, x2 = 0.62
Settings | viscosity [mPa·s]
293.15 K | 29
303.15 K | 16.7
313.15 K | 10.3
323.15 K | 6.73

c1ccc2c(c1)CCCC2 + c1ccccc1
298.15 K, 101 kPa
Settings | viscosity [mPa·s]
x1 = 0.1394 | 0.719
x1 = 0.3016 | 0.8758
x1 = 0.493 | 1.098
x1 = 0.7222 | 1.445

CCCCOCCO + CCCO
viscosity [mPa·s], 101 kPa
Settings | x1 = 0.3032 | x1 = 0.8553 | x1 = 0.9516
298.15 K | – | 2.725 | –
303.15 K | 1.925 | – | 2.615

CCOCCOCCOCC + ClC(Cl)(Cl)Cl
298.15 K, 101 kPa
Settings | viscosity [mPa·s]
x1 = 0.0066 | 0.914
x1 = 0.0198 | 0.932
x1 = 0.0498 | 0.975
x1 = 0.0871 | 1.016
x1 = 0.127 | 1.051
x1 = 0.1781 | 1.093
x1 = 0.2051 | 1.115
x1 = 0.2354 | 1.134
x1 = 0.2797 | 1.161
x1 = 0.3206 | 1.18
x1 = 0.3371 | 1.189
x1 = 0.3614 | 1.202
x1 = 0.3768 | 1.21
x1 = 0.4165 | 1.225
x1 = 0.4689 | 1.241
x1 = 0.5264 | 1.257
x1 = 0.5651 | 1.269
x1 = 0.599 | 1.269
x1 = 0.6708 | 1.274
x1 = 0.715 | 1.286
x1 = 0.7943 | 1.293
x1 = 0.8245 | 1.283
x1 = 0.8784 | 1.282
x1 = 0.9126 | 1.282
x1 = 0.9535 | 1.273

COC(=O)c1ccccc1 + CCCCCCCC
101 kPa
Settings | viscosity [mPa·s]
298.15 K, x2 = 0.0356 | 1.698
298.15 K, x2 = 0.0736 | 1.572
298.15 K, x2 = 0.1081 | 1.474
298.15 K, x2 = 0.1549 | 1.349
298.15 K, x2 = 0.1926 | 1.265
298.15 K, x2 = 0.2388 | 1.169
298.15 K, x2 = 0.3669 | 0.961
298.15 K, x2 = 0.4093 | 0.905
298.15 K, x2 = 0.4513 | 0.855
298.15 K, x2 = 0.5041 | 0.796
298.15 K, x2 = 0.55 | 0.754
298.15 K, x2 = 0.6034 | 0.707
298.15 K, x2 = 0.6567 | 0.669
298.15 K, x2 = 0.7105 | 0.634
298.15 K, x2 = 0.7575 | 0.606
298.15 K, x2 = 0.8645 | 0.558
298.15 K, x2 = 0.9387 | 0.533
308.15 K, x2 = 0.0548 | 1.358
308.15 K, x2 = 0.0935 | 1.263
308.15 K, x2 = 0.1329 | 1.177
308.15 K, x2 = 0.1743 | 1.099
308.15 K, x2 = 0.216 | 1.026
308.15 K, x2 = 0.2531 | 0.967
308.15 K, x2 = 0.2946 | 0.909
308.15 K, x2 = 0.341 | 0.852
308.15 K, x2 = 0.3823 | 0.806
308.15 K, x2 = 0.4247 | 0.763
308.15 K, x2 = 0.4738 | 0.719
308.15 K, x2 = 0.5182 | 0.685
308.15 K, x2 = 0.5728 | 0.645
308.15 K, x2 = 0.6245 | 0.612
308.15 K, x2 = 0.6742 | 0.583
308.15 K, x2 = 0.7274 | 0.558
308.15 K, x2 = 0.774 | 0.536
308.15 K, x2 = 0.8351 | 0.512
308.15 K, x2 = 0.9135 | 0.486
318.15 K, x2 = 0.0668 | 1.147
318.15 K, x2 = 0.0719 | 1.139
318.15 K, x2 = 0.112 | 1.068
318.15 K, x2 = 0.1404 | 1.022
318.15 K, x2 = 0.1952 | 0.94
318.15 K, x2 = 0.2418 | 0.876
318.15 K, x2 = 0.2828 | 0.823
318.15 K, x2 = 0.3337 | 0.764
318.15 K, x2 = 0.3678 | 0.729
318.15 K, x2 = 0.4175 | 0.682
318.15 K, x2 = 0.463 | 0.644
318.15 K, x2 = 0.5158 | 0.605
318.15 K, x2 = 0.5624 | 0.576
318.15 K, x2 = 0.6149 | 0.548
318.15 K, x2 = 0.6664 | 0.525
318.15 K, x2 = 0.7241 | 0.502
318.15 K, x2 = 0.7767 | 0.485
318.15 K, x2 = 0.8373 | 0.468
318.15 K, x2 = 0.8921 | 0.453

Reference: the CheMixHub viscosity set
